Laboratory results as given in US20240287052A1, “NOVEL OXAZOLE DERIVATIVE AND PHARMACEUTICAL COMPOSITION FOR PREVENTING OR TREATING ALLERGIC DISEASES COMPRISING THE SAME” (AZCURIS CO., LTD., priority 2021, published 2024).
Read-outs that look alike come from different tables or passages of the source.

Tests used:
[1] = test system: IL-6 secretion in the human mast cell line HMC 1.1; test: IL-6 production inhibition assay (IL-33 stimulated HMC 1.1 cells, IL-6 ELISA); format: cell-based; conditions: for inhibition at 1 µM: 1 μM compound, read-out: Inhibition of hIL-6 production (%) 1 μM; for inhibition at 1 µM / inhibition at 10 µM: 24 hours; for inhibition at 10 µM: 10 μM compound, read-out: Inhibition of hIL-6 production (%) 10 μM; for EC50: read-out: Inhibition of hIL-6 production EC50
Outline: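 HMC 1.1 cells stimulated with 200 nM recombinant human IL-33 were exposed 24 hours to compound at 10 μM, 25 μM, 30 μM or 50 μM, among other levels. Secreted IL-6 was quantified by ELISA in triplicate against a standard curve and expressed as % of vehicle.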

[2] = Cellular viability, WST-8 assay, without or with human liver microsomes; format: cell-based
Experimental: (§1) Human liver cancer cell line HepG2 cells were cultured in a medium (high glucose Dulbecco's Modified Eagle Medium, DMEM, HyClone) supplemented with 10% fetal bovine serum (FBS, HyClone) and 1% antibiotic in a thermostat maintained at 37° C. with 5% CO2.
(§2) HepG2 cells, which are adherent cells, were […] or presence of human liver microsomes (Gibco) and NADPH regenerating system.
(§3) Cell cultures were exchanged using […] of medium (high glucose Dulbecco's Modified Eagle Medium, DMEM, HyClone) and incubated for 24 hours.
(§4) After adding 10 μL of WST-8 (abCam), the absorbance was obtained at 460 nm after 5 seconds of orbital shaking with a microplate reader (Tecan, Spark©) 2 hours later.
(§5) The mean of the three values obtained in triplicate was calculated and expressed as % cellular viability compared to vehicle treatment.

[3] = test system: Human liver cancer cell line HepG2 cells; test: as above; format: cell-based; conditions: at 100 μM; for Cellular viability (%) (+) microsome: HepG2, with human liver microsomes; for Cellular viability (%) (−) microsome: HepG2, without human liver microsomes
Experimental: as §1, §2, §3, §4, §5

[4] = target: T1, IL33 and ST2 binding (Homo sapiens, UniProt O95760);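 also: plate ELISA with coated Flag-tagged human IL-33 and His-tagged human ST2, bound ST2 detected by anti-His HRP and TMB absorbance at 450 nm, 2 h compound incubation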
T1 sequence (O95760 112-270 limits assumed): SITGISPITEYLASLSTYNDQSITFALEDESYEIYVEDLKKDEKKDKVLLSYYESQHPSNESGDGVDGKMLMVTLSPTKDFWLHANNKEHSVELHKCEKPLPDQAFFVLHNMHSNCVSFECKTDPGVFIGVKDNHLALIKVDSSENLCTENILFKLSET

[5] = target: T1, IL33 and ST2 binding; test: biochemical
[6] = HepG2, with human liver microsomes, read-out: CC50 (μM) (+) microsome
[7] = HepG2 cells, HepG2, without human liver microsomes, read-out: CC50 (μM) (−) microsome

Row | SMILES | inhibition at 1 µM [1] [%] | inhibition at 10 µM [1] [%] | EC50 [1] [µM] | CC50 at 24 h [2, 6] [µM] | CC50 at 24 h [2, 7] [µM] | Cellular viability (%) (+) microsome [3] [at %] | Cellular viability (%) (−) microsome [3] [at %] | inhibition ([4]; 30 µM) [%] | inhibition ([4]; 100 µM) [%] | IC50 [5] [µM]
1 | CSc1ccc(-c2nc(C(=O)NCCN3CCN(C)CC3)c(-c3ccccc3)o2)cc1 [Compound 272, N-(2-(4-Methylpiperazin-1-yl)ethyl)-2-(4-(methylthio)phenyl)-5-phenyloxazole-4-carboxamide] | 52 | 79 | 0.42 | 5.6 | 4.73 | 49 | 46 | 97 | 97 | 4.17
2 | CN(C)CCNC(=O)c1nc(-c2ccc(Cl)cc2)oc1-c1ccccc1[N+](=O)[O-] [Compound 246, 2-(4-Chlorophenyl)-N-(2-(dimethylamino)ethyl)-5-(2-nitrophenyl)oxazole-4-carboxamide] | 20 | 45 | 6.15 | 16 | 11.8 | 52 | 47 | 110 | 112 | 4.78
3 | CN(C)CCNC(=O)c1nc(-c2ccc(C#N)cc2)oc1-c1ccccc1 [Compound 249, 2-(4-Cyanophenyl)-N-(2-(dimethylamino)ethyl)-5-phenyloxazole-4-carboxamide] | 8 | 35 |  | 29.1 | 19 | 50 | 43 | 81 | 97 | 6.46
4 | CC(=O)N1CCN(CCNC(=O)c2nc(-c3ccc(C(F)(F)F)cc3)oc2-c2ccccc2[N+](=O)[O-])CC1 [Compound 284, N-(2-(4-acetylpiperazin-1-yl)ethyl)-5-(2-nitrophenyl)-2-(4-(trifluoromethyl)phenyl)oxazole-4-carboxamide] | 27 | 39 |  | 46.5 | 48.6 | 49 | 40 | 101 | 104 | 3.15
5 | CN(C)CCNC(=O)c1nc(-c2ccc([N+](=O)[O-])cc2)oc1-c1ccccc1[N+](=O)[O-] [Compound 277, N-(2-(Dimethylamino)ethyl)-5-(2-nitrophenyl)-2-(4-nitrophenyl)oxazole-4-carboxamide] | 27 | 31 |  | 46.2 | 25.4 | 49 | 46 | 60 | 111 | 14.4
